In patent US8367583B2, “Composition and method for controlling pests” (Sumitomo Chemical Company, Limited, priority 2009, dated 2013):

How the values were obtained:
[1] = tested on: first-instar larvae of Nilaparvata lugens; test: Test Example 3: rice seed immersion, control rate against Nilaparvata lugens larvae; format: in vivo; conditions: rice seeds immersed 24 hours at 30° C., 7 days after release
Source text: (§1) Control Rate=100×(1−[(Ts/30)/(Cs/30)]) “Equation A” where Ts and Cs denote the number of surviving larvae in the treatment group and the non-treatment group, respectively. When the control rate is less than 0 (Ts>Cs), it is represented by 0.
An aqueous solution of the compound I prepared by dissolving the compound I in water was appropriately mixed with a chemical solution of fipronil prepared by diluting fipronil (Prince Flowable: manufactured by BASF Agro, Ltd.) with water to prepare a mixed chemical solution for test of the compound I and fipronil with a predetermined concentration. In 40 ml of the mixed chemical solution for test, 100 of rice seeds were immersed and allowed to stand at 30° C. for 24 hours, and then each of the 15 seeds were sown in cultivation soil filled in a 90-ml plastic cup. Eleven (11) days after the sowing, 30 of first-instar larvae of Nilaparvata lugens were released on seedlings germinated from the rice seeds. After 7 days, the number of the surviving larvae was counted and the control rate was calculated using the equation A in the same manner as in Example 2.
(§2) For comparison, the test was conducted in the same manner using an aqueous solution for test having a predetermined concentration of the compound I prepared by diluting an aqueous solution of the compound I with water, and a chemical solution for test having a predetermined concentration of fipronil prepared by diluting a chemical solution of fipronil with water, respectively.

[2] = tested on: first-instar larvae of Pseudaletia Separata; test: Test Example 2: treatment of the foot of rice seedlings, control rate against Pseudaletia Separata larvae; format: in vivo; conditions: rice seedling foot treated with 5 ml, 3 days after release
Experimental: An aqueous solution of the compound I prepared by dissolving the compound I in water was appropriately mixed with a chemical solution of fipronil prepared by diluting Fipronil (Prince Flowable: manufactured by BASF Agro, Ltd.) with water to prepare a mixed chemical solution for test of the compound I and fipronil with a predetermined concentration. The foot of a rice seedling (2 weeks after germination) cultivated in a 90-ml plastic cup using cultivation soil was treated with 5 ml of the mixed chemical solution for test. After 3 days, 30 of first-instar larvae of Pseudaletia Separata were released per plant. After 3 days, the number of surviving larvae was counted and the control rate was calculated using the equation A.
as §2, §1

| Structure (SMILES) | Control rate ([1]; Fipronil 3.1 ppm singly (Compound I 0 ppm)) [%] | Control rate ([2]; Fipronil 10 ppm singly (Compound I 0 ppm)) [%] | Control rate ([2]; Fipronil 30 ppm singly (Compound I 0 ppm)) [%] | Control rate ([2]; Fipronil 100 ppm singly (Compound I 0 ppm)) [%] | Control rate ([1]; Compound I 50 ppm singly (Fipronil 0 ppm)) [%] | Control rate ([1]; Compound I 200 ppm singly (Fipronil 0 ppm)) [%] | Control rate ([2]; Compound I 10 ppm singly (Fipronil 0 ppm)) [%] | Control rate ([2]; Compound I 30 ppm singly (Fipronil 0 ppm)) [%] | Control rate ([2]; Compound I 100 ppm singly (Fipronil 0 ppm)) [%] |
| --- | --- | --- | --- | --- | --- | --- | --- | --- | --- |
| N#Cc1nn(-c2c(Cl)cc(C(F)(F)F)cc2Cl)c(N)c1[S+]([O-])C(F)(F)F (stereo not drawn) [Fipronil, 5-amino-1-(2,6-dichloro-α,α,α-trifluoro-p-tolyl)-4-trifluoromethylsulfinyl pyrazole-3-carbonitrile, reference compound] | 50 | 23 | 41 | 68 |  |  |  |  |  |
| O=C(O)CCC(=O)NCCc1ccccc1 [Compound I, 4-oxo-4-[(2-phenylethyl)amino]-butyric acid] |  |  |  |  | 11 | 21 | 0 | 0 | 0 |
